# In the supplement of paper PMC13380429:
# ± gives the standard deviation of the averaged measurements.
# How the values were obtained:
# Conditions in all cases: 72 h
# Caco-2 [1] = assay: cell viability relative to DMSO; higher = less toxic
# HepG2 [2] = assay: as above
# U2OS [3] = assay: as above
# Vero E6 [4] = assay: as above
# HepG2 [5] = assay: relative viability EC50 (midpoint between 100% and the lowest measured viability); higher = less toxic
# U2OS [6] = assay: as above
# Vero E6 [7] = assay: as above
# Caco-2 [8] = assay: drug sensitivity score (DSS) for viability; higher = more toxic; extreme values may be limits of the assay
# HepG2 [9] = assay: as above
# U2OS [10] = assay: as above
# Vero E6 [11] = assay: as above
# Calu-3 [12] = assay: cell viability relative to DMSO; higher = less toxic
# Caco-2 [13] = assay: relative viability EC50 (midpoint between 100% and the lowest measured viability); higher = less toxic
# Calu-3 [14] = assay: as above
# Calu-3 [15] = assay: drug sensitivity score (DSS) for viability; higher = more toxic; extreme values may be limits of the assay
Compound,cell viability (Caco-2 [1]; 1 nM),cell viability (Caco-2 [1]; 10 nM),cell viability (Caco-2 [1]; 100 nM),cell viability (Caco-2 [1]; 1000 nM),cell viability (Caco-2 [1]; 10000 nM),cell viability (HepG2 [2]; 1 nM),cell viability (HepG2 [2]; 10 nM),cell viability (HepG2 [2]; 100 nM),cell viability (HepG2 [2]; 1000 nM),cell viability (HepG2 [2]; 10000 nM),cell viability (U2OS [3]; 1 nM),cell viability (U2OS [3]; 10 nM),cell viability (U2OS [3]; 100 nM),cell viability (U2OS [3]; 1000 nM),cell viability (U2OS [3]; 10000 nM),cell viability (Vero E6 [4]; 1 nM),cell viability (Vero E6 [4]; 10 nM),cell viability (Vero E6 [4]; 100 nM),cell viability (Vero E6 [4]; 1000 nM),cell viability (Vero E6 [4]; 10000 nM),relative viability EC50 (HepG2 [5]),relative viability EC50 (U2OS [6]),relative viability EC50 (Vero E6 [7]),drug sensitivity score (Caco-2 [8]),drug sensitivity score (HepG2 [9]),drug sensitivity score (U2OS [10]),drug sensitivity score (Vero E6 [11]),cell viability (Calu-3 [12]; 1 nM),cell viability (Calu-3 [12]; 10 nM),cell viability (Calu-3 [12]; 100 nM),cell viability (Calu-3 [12]; 1000 nM),cell viability (Calu-3 [12]; 10000 nM),relative viability EC50 (Caco-2 [13]),relative viability EC50 (Calu-3 [14]),drug sensitivity score (Calu-3 [15])
Cc1ccc(NC(=O)C(C)C)cc1C1CCN(Cc2ccc(Oc3ccc(F)c(F)c3)cc2)CC1,90.7%,101%,98.4%,98.3%,62.8%,105%,97.4%,97.4%,103%,31.5%,96.2%,95.8%,99.5%,94.6%,80.3%,106%,102%,99.5%,100%,75.3%,3.39 µM,> 10 µM,> 10 µM,2,3.5,1.2,0.9,–,–,–,–,–,–,–,–
Nc1nccc(-c2ccc3noc(-c4ccc(Cl)cc4)c3c2)n1 [PIM-1-Inhibitor-2],98%,97%,91.9%,102%,98.2%,96.8%,94.2%,92.6%,92.7%,57.7%,98.3%,104%,93.2%,99.6%,93.6%,97.7%,103%,104%,98.5%,99.7%,–,> 10 µM,> 10 µM,0,3.4,0,0,100%,91.4%,99%,97%,88.8%,> 10 µM,> 10 µM,0
O=C(C[C@H]1CC(c2ccc(F)cc2F)=NO1)N1CCOCC1 (racemic) [CPSI-1306-(+/-)],93.7%,105%,107%,90.9%,104%,101%,107%,96.4%,95.6%,104%,95.7%,99.3%,99.1%,102%,104%,95.6%,97.4%,93.6%,95%,106%,> 10 µM,> 10 µM,> 10 µM,0,0,0,0,–,–,–,–,–,> 10 µM,–,–
CC1=C(/C=C/C(C)=C/C=C/C(C)=C/C(=O)O)C(C)(C)CCC1 [tretinoin],103 ± 8.2%,102 ± 10%,97.5 ± 1.4%,101 ± 1.9%,74.5 ± 18%,99.8 ± 2.9%,102 ± 7%,109.5 ± 0.64%,101 ± 3.5%,103 ± 6.5%,98.8 ± 0.28%,95.3 ± 4%,94.3 ± 2.3%,95.6 ± 0.57%,90.7 ± 0.85%,102 ± 5.2%,101 ± 1.9%,99.7 ± 3.3%,98.3 ± 2.1%,101 ± 1.9%,> 10 µM,> 10 µM,> 10 µM,0.9 ± 1.1,0,0,0,106 ± 6.3%,97.7 ± 1.7%,106 ± 3.3%,87.5 ± 2.5%,85.4 ± 4.5%,–,> 10 µM,1.2 ± 0.28
Cc1cc2c(N3CCCC3)nc(N3CCCC3)nc2n1C,103%,92.2%,96.9%,97.6%,71.8%,109%,94.3%,101%,100%,78.4%,96.2%,101%,101%,101%,93.5%,104%,96%,104%,99.3%,93.5%,> 10 µM,> 10 µM,> 10 µM,1.5,0.7,0,0,103%,110%,93.5%,94.5%,106%,–,> 10 µM,0
COc1cc2nc(N3CCCN(C)CC3)nc(NC3CCN(Cc4ccccc4)CC3)c2cc1OC,96.1%,104%,88.9%,108%,54.9%,98.8%,85.4%,91.4%,67.5%,10.3%,98%,100%,95%,96.6%,43.8%,106%,97.4%,99.7%,96.2%,26.1%,1.37 µM,2.69 µM,2.77 µM,1.9,8.8,3.5,4.6,84.2%,100%,89.7%,94.1%,12.6%,–,2.62 µM,5.7
N#CSc1cc(SC#N)c(N)nc1N [PR-619],93%,91.5%,93.6%,92.2%,85.4%,104%,120%,108%,107%,55.4%,101%,96.4%,99%,94.1%,90.6%,92.3%,104%,103%,99.6%,77.3%,–,> 10 µM,> 10 µM,0,1.9,0,0.8,109%,94.5%,93.9%,107%,94.8%,> 10 µM,> 10 µM,0
